Assay results reported in ChEMBL document CHEMBL3507680, “University of Dundee, Gates Library screen for HepG2 cell viability”.

Assay: Human HepG2 cell viability assay in 384 well format
Format: toxicity, cell-based
Design: dose 125 nL, time 70.5 hour; concentration not given beside the values
Settings: HepG2 cells, read-out: Inhibition
In the case of `CCc1noc(CN(C)CCC(=O)Nc2ccc(Cl)cc2)n1`, the cytotoxicity at 70.5 h is reported as -0.958%.
Molecule `CC(C)CCN1C2(CCN(C(=O)CN(C)C)C2)c2ccccc2S1(=O)=O` (stereo not given) has a cytotoxicity at 70.5 h of -5.18%.
Work on `Cc1cc(C(F)(F)F)nn1CCCNC(=O)C1CCCO1` (stereo not given) yielded a cytotoxicity at 70.5 h of 16.3%.
With `Cc1cc2nc(SCC(=O)N3CCCC3)n(C)c(=O)c2[nH]1` the cytotoxicity at 70.5 h was -3.73%.
`CC(NC(=O)CSCC(=O)Nc1ccccc1)c1ccccc1` (stereo not given) gave a cytotoxicity at 70.5 h of -1.19%.
With `Cc1ncsc1CN1C[C@@H]2COC[C@]2(C(=O)NC2CC(F)(F)C2)C1` the cytotoxicity at 70.5 h was -4.72%.
Molecule `Cc1cnn(Cc2cc(F)ccc2F)c1NC(=O)C1CCOCC1` has a cytotoxicity at 70.5 h of 1.07%.
`O=C(C1CCCC1)N1CCN(Cc2nc(-c3ccco3)no2)CC1` gave a cytotoxicity at 70.5 h of -9.97%.
With `Cc1nc(CN2CCCC(c3cnccn3)C2)cs1` (stereo not given) the cytotoxicity at 70.5 h was -2.76%.
`Cc1cnc2n(c1=O)C(CC(=O)NCc1ccco1)CS2` (stereo not given) gave a cytotoxicity at 70.5 h of -0.737%.
With `Cc1nn(C)cc1-c1cc(C(F)(F)F)n(CCCN)n1` the cytotoxicity at 70.5 h was -0.484%.
`CCc1n[nH]c(C2CN(CCc3ccncc3)CCO2)n1` (stereo not given) gave a cytotoxicity at 70.5 h of -7.11%.
Molecule `N#CCCN1CCN(S(=O)(=O)c2ccc(Cl)s2)CC1` has a cytotoxicity at 70.5 h of 15.9%.
For `C[C@@H]1CN(C(=O)C2CCS(=O)(=O)CC2)CC[C@@]1(O)C1CCOCC1`, the cytotoxicity at 70.5 h was -11%.
In the case of `c1cncc(-n2cnnc2CC2CCNCC2)c1`, the cytotoxicity at 70.5 h is reported as -0.719%.
For `Cc1ccccc1-c1cncc(C2CCN(S(=O)(=O)N(C)C)CC2)n1`, the cytotoxicity at 70.5 h was -2.74%.
With `Cc1n[nH]c(SCCNC2CCN(c3nc4ccccc4s3)CC2)n1` the cytotoxicity at 70.5 h was 2%.
With `Cn1ccnc1CN1CCOC[C@H]1c1nc(C(C)(C)C)co1` the cytotoxicity at 70.5 h was -1.75%.
In the case of `CCc1nnc(CN(C)C(=O)C2CC(=O)N(C3CC3)C2)o1` (stereo not given), the cytotoxicity at 70.5 h is reported as -6.39%.
With `Cc1ccn(-c2ccccc2NCc2ncc[nH]2)n1` the cytotoxicity at 70.5 h was 3.45%.
Work on `CNc1snc(C)c1C(=O)NC(C)CC(=O)c1cccs1` (stereo not given) yielded a cytotoxicity at 70.5 h of -14.5%.
With `Cc1cnn(CC2CCCN2C(=O)c2ccc(-n3cccn3)nc2)c1` (stereo not given) the cytotoxicity at 70.5 h was -1.39%.
With `c1ccc(COC[C@H]2CC[C@H]3[C@H](CCN3Cc3ccco3)O2)nc1` the cytotoxicity at 70.5 h was -6.26%.
Work on `CC1c2ncc(Cn3cncn3)n2CCN1C(=O)C1CCOCC1` (stereo not given) yielded a cytotoxicity at 70.5 h of -2.59%.
With `COC(=O)c1ccccc1NC(=O)c1c(C)cn(C)c1CC(=O)O` the cytotoxicity at 70.5 h was 18.3%.
Work on `CCn1nc2c(cc1=O)CN(CC(=O)Nc1nc(C)c(C)s1)CC2` yielded a cytotoxicity at 70.5 h of -13.9%.
`CCN1CCC2(CC1)C(=O)N(c1ccc(C)nc1)CCN2CC(C)C` gave a cytotoxicity at 70.5 h of -3%.
Work on `Cc1cnc(N2CCC3(CC2)CC3C(=O)NCC2CC2)nc1` (stereo not given) yielded a cytotoxicity at 70.5 h of 11.9%.
Molecule `Cc1cccc(CN2CCc3c(nc(N4CCCCC4C)[nH]c3=O)C2)n1` (stereo not given) has a cytotoxicity at 70.5 h of -4.07%.
In the case of `Cc1ccc(CNC2CCc3nc(C(C)C)nn3C2)o1` (stereo not given), the cytotoxicity at 70.5 h is reported as -4.86%.
`Cn1nnc2c1CCN(C(C(=O)N1CCCCC1)c1ccccc1)C2` (stereo not given) showed a cytotoxicity at 70.5 h of -7.33%.
Molecule `CCOc1ncccc1C(=O)Nc1c(C)cnn1CC1CC1` has a cytotoxicity at 70.5 h of -9.45%.
For `Cc1ccc2c(n1)N(CC1CC1)CCN(S(=O)(=O)C1CC1)C2`, the cytotoxicity at 70.5 h was -5.85%.
For `Cc1cccc(CN2CCc3onc(CN(C)C)c3C2)n1`, the cytotoxicity at 70.5 h was 0.439%.
For `CN1CC[C@H](N(Cc2ccccc2)C2COC2)C[C@H](O)C1`, the cytotoxicity at 70.5 h was -6.77%.
In the case of `CCN(CCCNC(=O)c1ccc(C)[nH]c1=O)S(C)(=O)=O`, the cytotoxicity at 70.5 h is reported as -0.303%.
Molecule `O=C1CCC2(CCCN(C(=O)c3cscn3)C2)CN1CCc1c[nH]cn1` (stereo not given) has a cytotoxicity at 70.5 h of -9.29%.
For `Cc1ccc2cc(CNCCN3CCCC3)c(=O)[nH]c2c1`, the cytotoxicity at 70.5 h was -0.158%.
Work on `CCN(CC(=O)NC)C(=O)Cc1csc(C(C)C)n1` yielded a cytotoxicity at 70.5 h of -1.76%.
In the case of `Cc1nc2ccccn2c1CC(=O)N[C@@H]1CC[C@@H](N2CCOCC2)[C@@H]1O`, the cytotoxicity at 70.5 h is reported as -1.29%.
For `CCOCCC(=O)N1CCCN(Cc2csc(CC)n2)CC1`, the cytotoxicity at 70.5 h was -0.403%.
`CC(Nc1cccc(Oc2ccc(C#N)cn2)c1)C(=O)NC1CC1` (stereo not given) gave a cytotoxicity at 70.5 h of -6.13%.
Work on `Cn1cc(N2CCC(NC(=O)c3c(F)cccc3Cl)C2=O)cn1` (stereo not given) yielded a cytotoxicity at 70.5 h of -3.25%.
`CC(C)OCCCNC(=O)CSc1nnc(OC(C)C)s1` showed a cytotoxicity at 70.5 h of -4.19%.
`CC(C)Oc1ncc(C(=O)N2CCC(N(C)C)CC2)cc1Cl` gave a cytotoxicity at 70.5 h of -9.31%.
